One series concerns the target T1, human Edg-1 (S1P1) (Homo sapiens, UniProt P21453).
T1 construct: expressed in transfected cells; host or cells: HEK-293
As to the kind of experiment: S1P1 binding assay: inhibition of [33P]-S1P binding to membrane fraction of HEK-293 cells transferred with the human Edg-1 (S1P1) gene. Conditions: for inhibition at 10 µM: test compound at 10 μM, inhibition of [33P]-S1P binding to the membrane fraction of HEK-293 cells expressing human Edg-1 (S1P1); for IC50: [33P]-S1P 0.1 nM, human Edg-1 (S1P1) HEK-293 membrane fraction, 1 h at 30° C., read-out: IC50 (concentration at which binding in the absence of the test compound was inhibited by 50%). The method, boiled down:
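Membranes from S1P1-transfected HEK-293 cells incubated 1 h at 30° C in pH 7.4 Tris buffer with fatty acid-free BSA, 0.1 nM [33P]-S1P and test compound (0.1% DMSO). Filter-bound radioactivity was counted; inhibition corrected for binding to untransfected-cell membranes, and IC50 derived from concentration series.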

We go through 36 compounds from patent publication US8022091B2, “Triazole derivative” (Taisho Pharmaceutical Co., Ltd., priority 2006, dated 2011).

T1 sequence (P21453 whole entry): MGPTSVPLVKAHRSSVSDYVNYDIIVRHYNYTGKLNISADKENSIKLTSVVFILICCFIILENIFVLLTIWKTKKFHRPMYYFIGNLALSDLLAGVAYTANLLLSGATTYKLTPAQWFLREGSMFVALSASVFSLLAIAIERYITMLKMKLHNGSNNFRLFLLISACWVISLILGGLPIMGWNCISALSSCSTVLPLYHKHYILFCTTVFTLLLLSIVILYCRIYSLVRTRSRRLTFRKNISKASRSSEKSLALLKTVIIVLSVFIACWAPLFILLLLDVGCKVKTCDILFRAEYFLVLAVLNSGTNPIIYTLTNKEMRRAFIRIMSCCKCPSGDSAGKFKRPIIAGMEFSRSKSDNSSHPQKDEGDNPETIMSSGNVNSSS

Regarding `CCn1c(Oc2cccc(C)n2)nnc1[C@@H](C)NS(=O)(=O)c1ccc(Cl)c(Cl)c1` [Compound 71], the melting point lay in the range of 126 to 135 °C. The inhibition at 10 µM at human Edg-1 (S1P1) was found to be 99.3%.

As to `CCn1c(Oc2ccc3cccnc3c2)nnc1[C@@H](C)NS(=O)(=O)c1ccc(Cl)c(Cl)c1` [Compound 72], the melting point was in the range of 198 to 200.5 °C. The inhibition at 10 µM at human Edg-1 (S1P1) is 99%.

`CCn1c(Oc2cccc(N3CCCCC3)c2)nnc1[C@@H](C)NS(=O)(=O)c1ccc(Cl)c(Cl)c1` [Compound 73] registered a melting point of 185 to 187 °C. Besides, on human Edg-1 (S1P1), the IC50 was determined as 2.2 nM and the inhibition at 10 µM amounted to 103%.

`CCn1c(Oc2ccc3c(c2)NC(=O)CC3)nnc1[C@@H](C)NS(=O)(=O)c1ccc(Cl)c(Cl)c1` [Compound 74] showed a melting point of 218.5 to 227 °C. On human Edg-1 (S1P1), the IC50 came to 15 nM and the inhibition at 10 µM stood at 105%.

`CCn1c(Oc2cccc(N3CCC3)c2)nnc1[C@@H](C)NS(=O)(=O)c1ccc(Cl)c(Cl)c1` [Compound 75] came in with a melting point of 177 to 179 °C. Also, on human Edg-1 (S1P1), the IC50 was at most 10 nM and the inhibition at 10 µM stood at 95%.

For `CCn1c(Oc2cccc(N3C[C@@H](C)O[C@@H](C)C3)c2)nnc1[C@@H](C)NS(=O)(=O)c1ccc(Cl)c(Cl)c1` [Compound 76], the melting point lay in the range of 151.5 to 153.5 °C. Also, at human Edg-1 (S1P1), the IC50 was at most 35 nM and the inhibition at 10 µM came to 99.2%.

In the case of `CCn1c(Oc2cc(C(F)(F)F)n(C)n2)nnc1[C@@H](C)NS(=O)(=O)c1ccc(Cl)c(Cl)c1` [Compound 77], the melting point lay in the range of 123 to 127 °C. Moreover, the inhibition at 10 µM at human Edg-1 (S1P1) came to 99.7%.

`CCn1c(Oc2ccc3ncccc3c2)nnc1[C@@H](C)NS(=O)(=O)c1ccc(Cl)c(Cl)c1` [Compound 78] registered a melting point of 178 to 179 °C. Further, on human Edg-1 (S1P1), the inhibition at 10 µM stood at 90.7%.

In the case of `CCn1c(Oc2cccc(N3CCCC3)c2)nnc1[C@@H](C)NS(=O)(=O)c1ccc(Cl)c(Cl)c1` [Compound 79], the melting point lay in the range of 190 to 195 °C. Besides, the inhibition at 10 µM at human Edg-1 (S1P1) was 104%.

`CCn1c(Oc2cc(C)nc(C)c2)nnc1[C@@H](C)NS(=O)(=O)c1ccc(Cl)c(Cl)c1` [Compound 80] displayed a melting point of 164 to 165 °C. Besides, at human Edg-1 (S1P1), the inhibition at 10 µM was 87.6%.

In turn, `CCn1c(Oc2ccc3c(c2)N=S=N3)nnc1[C@@H](C)NS(=O)(=O)c1ccc(Cl)c(Cl)c1` [Compound 81] showed a melting point of 160 to 165 °C. Also, the inhibition at 10 µM at human Edg-1 (S1P1) is 93.2%.

The compound `CCn1c(Oc2cccc(N)c2)nnc1[C@@H](C)NS(=O)(=O)c1ccc(Cl)c(Cl)c1` [Compound 82, N-[(R)-1-[5-(3-Amino-phenoxy)-4-ethyl-4H-[1,2,4]triazol-3-yl]-ethyl]-3,4-dichlorobenzenesulfonamide] registered a melting point of 142 to 145 °C. In addition, the inhibition at 10 µM at human Edg-1 (S1P1) is 101%.

In the case of `CCn1c(Oc2cccc(N3CCN(CCN(C)C)CC3)c2)nnc1[C@@H](C)NS(=O)(=O)c1ccc(Cl)c(Cl)c1` [Compound 83], the melting point was 170 to 173 °C. In addition, at human Edg-1 (S1P1), the IC50 amounted to 8.1 nM and the inhibition at 10 µM was 101%.

`CCn1c(Oc2cccc(NC(C)=O)c2)nnc1[C@@H](C)NS(=O)(=O)c1ccc(Cl)c(Cl)c1` [Compound 84] returned a melting point of 160 to 165 °C. The inhibition at 10 µM on human Edg-1 (S1P1) was 100%.

In the case of `CCn1c(Oc2cccc(-n3ccnc3)c2)nnc1[C@@H](C)NS(=O)(=O)c1ccc(Cl)c(Cl)c1` [Compound 85], the melting point was in the range of 133 to 134 °C. At human Edg-1 (S1P1), the inhibition at 10 µM was 100%.

Compound `CCn1c(Oc2cccc(-n3cccc3)c2)nnc1[C@@H](C)NS(=O)(=O)c1ccc(Cl)c(Cl)c1` [Compound 86, 3,4-Dichloro-N-[(R)-1-[4-ethyl-5-(3-pyrrol-1-phenoxy)-4H-[1,2,4]triazol-3-yl]-ethyl]-benzenesulfonamide] had a melting point of 176 to 177 °C. Moreover, on human Edg-1 (S1P1), the inhibition at 10 µM is 107%.

The compound `CCn1c(Oc2cccc(-n3cnnc3)c2)nnc1[C@@H](C)NS(=O)(=O)c1ccc(Cl)c(Cl)c1` [Compound 89] displayed a melting point of 101 to 103 °C. Moreover, the inhibition at 10 µM at human Edg-1 (S1P1) was found to be 90.3%.

Take `CCn1c(Oc2cccc(NC=O)c2)nnc1[C@@H](C)NS(=O)(=O)c1ccc(Cl)c(Cl)c1` [Compound 90, 3,4-Dichloro-N-[(R)-1-[4-ethyl-5-(3-formylamino-phenoxy)-4H-[1,2,4]triazol-3-yl]-ethyl]-benzenesulfonamide]: the melting point was in the range of 168 to 170 °C. Moreover, the inhibition at 10 µM on human Edg-1 (S1P1) was 99%.

On to `CCn1c(Oc2cccc(NC(N)=O)c2)nnc1[C@@H](C)NS(=O)(=O)c1ccc(Cl)c(Cl)c1` [Compound 91, 3,4-Dichloro-N-[(R)-1-[4-ethyl-5-(3-ureido-phenoxy)-4H-[1,2,4]triazol-3-yl]-ethyl]-benzenesulfonamide], for which the melting point lay in the range of 137 to 138 °C. For the same compound, at human Edg-1 (S1P1), the inhibition at 10 µM stood at 90.6%.

`CCNC(=O)Nc1cccc(Oc2nnc([C@@H](C)NS(=O)(=O)c3ccc(Cl)c(Cl)c3)n2CC)c1` [Compound 92, 3,4-Dichloro-N-((R)-1-[4-ethyl-5-[3-(3-ethylureido)-phenoxy]-4H-[1,2,4]triazol-3-yl]-ethyl)-benzenesulfonamide]: the melting point lay within 118 to 120 °C. Moreover, the inhibition at 10 µM at human Edg-1 (S1P1) stood at 92.1%.

The compound `CCn1c(Oc2cccc(N3CCC(O)CC3)c2)nnc1[C@@H](C)NS(=O)(=O)c1ccc(Cl)c(Cl)c1` [Compound 93, 3,4-Dichloro-N-((R)-1-[4-ethyl-5-[3-(4-hydroxy-piperidin-1-yl)-phenoxy]-4H-[1,2,4]triazol-3-yl]-ethyl)-benzenesulfonamide] displayed a melting point of 167.5 to 169.5 °C. At human Edg-1 (S1P1), the IC50 was at most 10 nM and the inhibition at 10 µM was 99.9%.

Compound `CCn1c(Oc2cccc(N3CCN(C(C)C)CC3)c2)nnc1[C@@H](C)NS(=O)(=O)c1ccc(Cl)c(Cl)c1` [Compound 94] gave a melting point of 190 to 192 °C. Moreover, on human Edg-1 (S1P1), the IC50 was at most 10 nM and the inhibition at 10 µM is 106%.

Take `CCn1c(Oc2cc(C)cc(C)n2)nnc1[C@@H](C)NS(=O)(=O)c1ccc(Cl)c(Cl)c1` [Compound 95]: the melting point lay within 205 to 208.5 °C. Besides, on human Edg-1 (S1P1), the inhibition at 10 µM was determined as 92.4%.

In turn, `CCn1c(Oc2cc3nc(C)cc(C)n3n2)nnc1[C@@H](C)NS(=O)(=O)c1ccc(Cl)c(Cl)c1` [Compound 96] came in with a melting point of 191 to 194 °C. For the same compound, the inhibition at 10 µM at human Edg-1 (S1P1) came to 78.7%.

Turning to `CCn1c(Oc2cccc(NC(=O)N(C)C)c2)nnc1[C@@H](C)NS(=O)(=O)c1ccc(Cl)c(Cl)c1` [Compound 97, 3,4-Dichloro-N-((R)-1-[5-[3-(3,3-dimethylureido)-phenoxy]-4-ethyl-4H-[1,2,4]triazol-3-yl]-ethyl)-benzenesulfonamide], the melting point is 158 to 159 °C. Moreover, the inhibition at 10 µM at human Edg-1 (S1P1) came out at 93%.

In turn, `CCn1c(Oc2cccc(NC(=O)N3CCOCC3)c2)nnc1[C@@H](C)NS(=O)(=O)c1ccc(Cl)c(Cl)c1` [Compound 98] yielded a melting point of 143 to 144 °C. The inhibition at 10 µM on human Edg-1 (S1P1) came out at 100%.

Consider `CCn1c(Oc2cc(C(C)C)n(C)n2)nnc1[C@@H](C)NS(=O)(=O)c1ccc(Cl)c(Cl)c1` [Compound 99], for which the melting point fell in the range of 103 to 105.5 °C. At human Edg-1 (S1P1), the IC50 is 25 nM and the inhibition at 10 µM turned out to be 102%.

For the compound `CCn1c(Oc2cccc(NS(=O)(=O)N(C)C)c2)nnc1[C@@H](C)NS(=O)(=O)c1ccc(Cl)c(Cl)c1` [Compound 101], the melting point lay in the range of 142 to 143 °C. Also, on human Edg-1 (S1P1), the IC50 was at most 35 nM and the inhibition at 10 µM worked out at 101%.

For the compound `CCn1c(Oc2cccc(NS(C)(=O)=O)c2)nnc1[C@@H](C)NS(=O)(=O)c1ccc(Cl)c(Cl)c1` [Compound 102, 3,4-Dichloro-N-[(R)-1-[4-ethyl-5-(3-methanesulfonylamino-phenoxy)-4H-[1,2,4]triazol-3-yl]-ethyl]-benzenesulfonamide], the melting point is 117 to 118 °C. Also, on human Edg-1 (S1P1), the IC50 is at most 35 nM and the inhibition at 10 µM amounted to 104%.

Compound `CCn1c(Oc2ccc(F)cc2)nnc1[C@@H](C)NS(=O)(=O)c1ccc(F)c(Cl)c1` [Compound 103] gave a melting point of 146.5 to 147.5 °C. The inhibition at 10 µM at human Edg-1 (S1P1) amounted to 91.2%.

`CCn1c(Oc2ccc(F)cc2)nnc1[C@@H](C)NS(=O)(=O)c1ccc(Br)c(Br)c1` [Compound 104] registered a melting point of 187 to 187.5 °C. For the same compound, at human Edg-1 (S1P1), the inhibition at 10 µM turned out to be 95.2%.

In turn, `CCn1c(Oc2cccc(N(C)CCN(C)C)c2)nnc1[C@@H](C)NS(=O)(=O)c1ccc(Cl)c(Cl)c1` [Compound 105] displayed a melting point of 121 to 123 °C. At human Edg-1 (S1P1), the IC50 is 2.9 nM and the inhibition at 10 µM is 104%.

Turning to `CCn1c(Oc2cccc(OCCN(C)C)c2)nnc1[C@@H](C)NS(=O)(=O)c1ccc(Cl)c(Cl)c1` [Compound 106], the melting point fell in the range of 132 to 134 °C. Besides, the inhibition at 10 µM at human Edg-1 (S1P1) was 110%.

As to `CCn1c(Oc2cccc(N(C(C)C)C(C)C)c2)nnc1[C@@H](C)NS(=O)(=O)c1ccc(Cl)c(Cl)c1` [Compound 107], the melting point is 159 to 162 °C. At human Edg-1 (S1P1), the IC50 was at most 10 nM and the inhibition at 10 µM worked out at 104%.

With `CCn1c(Oc2cccc(C3CCN(C(C)C)CC3)c2)nnc1[C@@H](C)NS(=O)(=O)c1ccc(Cl)c(Cl)c1` [Compound 108], the melting point lay in the range of 175 to 180 °C. Besides, at human Edg-1 (S1P1), the IC50 amounted to 18 nM and the inhibition at 10 µM was 101%.

In turn, `CCn1c(Oc2cccc(N3CCN(C)CC3)c2)nnc1[C@@H](C)NS(=O)(=O)c1ccc(F)c(Cl)c1` [Compound 109] came in with a melting point of 152 to 153 °C. At human Edg-1 (S1P1), the IC50 is at most 35 nM and the inhibition at 10 µM came to 104%.

Usually melting point stands for the temperature of the solid-liquid transition. Usually inhibition stands for the drop in the measured response relative to a control, in per cent.
